Measured values published in patent US10562891B2, “Quinazolinones as PARP14 inhibitors” (Ribon Therapeutics Inc., priority 2017, dated 2020).
Counter-ions that a name gives are not always drawn.

Target: catalytic domain of human PARP14 (Homo sapiens (Human), UniProt Q460N5)
Test: Enzymatic assay for inhibition of PARP14 (DELFIA, auto-modification with biotin-NAD)
Assay type: biochemical
Settings: auto-modification of PARP14 by biotin-NAD, 50 nM PARP14, 3 μM biotin-NAD
How it was run: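 DELFIA auto-modification read-out: europium-streptavidin bound to biotin-NAD incorporated onto nickel-captured His-TEV PARP14 catalytic domain. Compound preincubated 30 min, then 50 nM enzyme with 3 μM biotin-NAD reacted 3 h, all at 25 °C, pH 8, then NAD quench. Percent inhibition normalized to rucaparib/DMSO wells, fitted (4- or 3-parameter) for IC50.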

Chain of catalytic domain of human PARP14 (Q460N5 1611-1801): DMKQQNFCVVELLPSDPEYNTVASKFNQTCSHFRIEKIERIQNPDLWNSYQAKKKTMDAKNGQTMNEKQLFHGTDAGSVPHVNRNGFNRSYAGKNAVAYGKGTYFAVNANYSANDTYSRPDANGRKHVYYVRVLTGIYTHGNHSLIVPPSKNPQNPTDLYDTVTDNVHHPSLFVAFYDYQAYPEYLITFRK

IC50 | Structure (SMILES)
< 1000 nM | O=c1[nH]c(CSC2CCOCC2)nc2cc(NCc3cccnc3)ccc12 [Example 123, 7-((Pyridin-3-ylmethyl)amino)-2-(((tetrahydro-2H-pyran-4-yl)thio)methyl)quinazolin-4(3H)-one]
< 1000 nM | O=c1[nH]c(CSC2CCOCC2)nc2cc(NC3CC3)ccc12 [Example 124, 7-(Cyclopropylamino)-2-(((tetrahydro-2H-pyran-4-yl)thio)methyl)quinazolin-4(3H)-one]
1000 to 10000 nM | CN(c1ccc2c(=O)[nH]c(CSC3CCOCC3)nc2c1)C1CCCCC1 [Example 125, 7-(Cyclohexyl(methyl)amino)-2-(((tetrahydro-2H-pyran-4-yl)thio)methyl)quinazolin-4(3H)-one]
1000 to 10000 nM | O=c1[nH]c(CSC2CCOCC2)nc2cc(NC3CCCN(Cc4ccccc4)C3)ccc12 (centres unmarked) [Example 126, 7-[(1-Benzyl-3-piperidyl)amino]-2-(tetrahydropyran-4-ylsulfanylmethyl)-3H-quinazolin-4-one]
> 10000 nM | O=c1[nH]c(CSC2CCOCC2)nc2cc(NC3CCCNC3)ccc12 (centres unmarked) [Example 127, 7-(3-Piperidylamino)-2-(tetrahydropyran-4-ylsulfanylmethyl)-3H-quinazolin-4-one]
1000 to 10000 nM | O=c1[nH]c(CSC2CCOCC2)nc2cc(NC3CCN(Cc4ccccc4)CC3)ccc12 [Example 128, 7-((1-Benzylpiperidin-4-yl)amino)-2-(((tetrahydro-2H-pyran-4-yl)thio)methyl) quinazolin-4(3H)-one]
1000 to 10000 nM | O=c1[nH]c(CSC2CCOCC2)nc2cc(NC3CCNCC3)ccc12 [Example 129, 7-(Piperidin-4-ylamino)-2-(((tetrahydro-2H-pyran-4-yl)thio)methyl) quinazolin-4(3H)-one]
1000 to 10000 nM | O=c1[nH]c(CSC2CCOCC2)nc2cc(NC3CCNC3)ccc12 (centres unmarked) [Example 130, 7-(Pyrrolidin-3-ylamino)-2-(((tetrahydro-2H-pyran-4-yl)thio)methyl) quinazolin-4(3H)-one]
1000 to 10000 nM | CC(=O)N1CCC(Nc2ccc3c(=O)[nH]c(CSC4CCOCC4)nc3c2)CC1 [Example 131, 7-((1-Acetylpiperidin-4-yl)amino)-2-(((tetrahydro-2H-pyran-4-yl)thio)methyl) quinazolin-4(3H)-one]
> 10000 nM | CC(=O)N1CCCC(Nc2ccc3c(=O)[nH]c(CSC4CCOCC4)nc3c2)C1 (centres unmarked) [Example 132, 7-((1-Acetylpiperidin-3-yl)amino)-2-(((tetrahydro-2H-pyran-4-yl)thio)methyl)quinazolin-4(3H)-one]
> 10000 nM | CN1CCCC(Nc2ccc3c(=O)[nH]c(CSC4CCOCC4)nc3c2)C1 (centres unmarked) [Example 133, 7-((1-Methylpiperidin-3-yl)amino)-2-(((tetrahydro-2H-pyran-4-yl)thio)methyl)quinazolin-4(3H)-one]
1000 to 10000 nM | CC(=O)N1CCC(Nc2ccc3c(=O)[nH]c(CSC4CCOCC4)nc3c2)C1 (centres unmarked) [Example 134, 7-((1-Acetylpyrrolidin-3-yl)amino)-2-(((tetrahydro-2H-pyran-4-yl)thio)methyl)quinazolin-4(3H)-one]
> 10000 nM | Cc1c(Oc2ccccc2)ccc2c(=O)[nH]c(CSC3CCOCC3)nc12 [Example 135, 8-Methyl-7-phenoxy-2-(((tetrahydro-2H-pyran-4-yl)thio)methyl)quinazolin-4(3H)-one]
< 1000 nM | O=c1[nH]c(CS[C@H]2CC[C@H](CO)CC2)nc2cc(NC3CCCCC3)ccc12 [Example 136, 7-(Cyclohexylamino)-2-(((trans-4-(hydroxymethyl)cyclohexyl)thio)methyl) quinazolin-4(3H)-one]
< 1000 nM | O=c1[nH]c(CS[C@H]2CC[C@@H](CO)CC2)nc2cc(NC3CCCCC3)ccc12 [Example 137, 7-(Cyclohexylamino)-2-(((cis-4-(hydroxymethyl)cyclohexyl)thio)methyl) quinazolin-4(3H)-one]
< 1000 nM | Cc1cccc2c(=O)[nH]c(CSC3CCN(Cc4nccn4C)CC3)nc12 [Example 138, 8-Methyl-2-(((1-((1-methyl-1H-imidazol-2-yl)methyl)piperidin-4-yl)thio)methyl)quinazolin-4(3H)-one bistrifluoroacetate]
< 1000 nM | CC(=O)Nc1ccc(CN2CCC(SCc3nc4c(C)cccc4c(=O)[nH]3)CC2)cc1 [Example 139, N-(4-((4-(((8-Methyl-4-oxo-3,4-dihydroquinazolin-2-yl)methyl)thio)piperidin-1-yl)methyl)phenyl)acetamide trifluoroacetate]
< 1000 nM | Cc1cccc2c(=O)[nH]c(CSC3CCN(Cc4ccc(N(C)C)cc4)CC3)nc12 [Example 140, 2-(((1-(4-(Dimethylamino)benzyl)piperidin-4-yl)thio)methyl)-8-methylquinazolin-4(3H)-one trifluoroacetate]

IC50 | Structure (SMILES)
1000 to 10000 nM | Cc1cccc2c(=O)[nH]c(CSC3CCN(Cc4ccc(C#N)cc4)CC3)nc12 [Example 141, 4-((4-(((8-Methyl-4-oxo-3,4-dihydroquinazolin-2-yl)methyl)thio)piperidin-1-yl)methyl)benzonitrile trifluoroacetate]
< 1000 nM | Cc1cccc2c(=O)[nH]c(CSC3CCN(Cc4cc[nH]n4)CC3)nc12 [Example 142, 2-(((1-((1H-Pyrazol-3-yl)methyl)piperidin-4-yl)thio)methyl)-8-methylquinazolin-4(3H)-one trifluoroacetate]
1000 to 10000 nM | Cc1cccc2c(=O)[nH]c(CSC3CCN(Cc4nn(C)c5ccccc45)CC3)nc12 [Example 143, 8-Methyl-2-(((1-((1-methyl-1H-indazol-3-yl)methyl)piperidin-4-yl)thio)methyl)quinazolin-4(3H)-one trifluoroacetate]
1000 to 10000 nM | Cc1nn(C)cc1CN1CCC(SCc2nc3c(C)cccc3c(=O)[nH]2)CC1 [Example 144, 2-(((1-((1,3-Dimethyl-1H-pyrazol-4-yl)methyl)piperidin-4-yl)thio)methyl)-8-methylquinazolin-4(3H)-one trifluoroacetate]
< 1000 nM | Cc1cccc(CN2CCC(SCc3nc4c(C)cccc4c(=O)[nH]3)CC2)n1 [Example 145, 8-Methyl-2-(((1-((6-methylpyridin-2-yl)methyl)piperidin-4-yl)thio)methyl)quinazolin-4(3H)-one bistrifluoroacetate]
< 1000 nM | Cc1cccnc1CN1CCC(SCc2nc3c(C)cccc3c(=O)[nH]2)CC1 [Example 146, 8-Methyl-2-(((1-((3-methylpyridin-2-yl)methyl)piperidin-4-yl)thio)methyl)quinazolin-4(3H)-one bistrifluoroacetate]
< 1000 nM | Cc1cccc2c(=O)[nH]c(CSC3CCN(CCc4ccccc4)CC3)nc12 [Example 147, 8-Methyl-2-(((1-phenethylpiperidin-4-yl)thio)methyl)quinazolin-4(3H)-one trifluoroacetate]
< 1000 nM | Cc1cccc2c(=O)[nH]c(CSC3CCN(Cc4ccc5cnn(C)c5c4)CC3)nc12 [Example 148, 8-Methyl-2-(((1-((1-methyl-1H-indazol-6-yl)methyl)piperidin-4-yl)thio)methyl)quinazolin-4(3H)-one trifluoroacetate]
1000 to 10000 nM | Cc1n[nH]cc1CN1CCC(SCc2nc3c(C)cccc3c(=O)[nH]2)CC1 [Example 149, 8-Methyl-2-(((1-((3-methyl-1H-pyrazol-4-yl)methyl)piperidin-4-yl)thio)methyl)quinazolin-4(3H)-one trifluoroacetate]
1000 to 10000 nM | CC(=O)Nc1cccc(CN2CCC(SCc3nc4c(C)cccc4c(=O)[nH]3)CC2)c1 [Example 150, N-(3-((4-(((8-Methyl-4-oxo-3,4-dihydroquinazolin-2-yl)methyl)thio)piperidin-1-yl)methyl)phenyl)acetamide trifluoroacetate]
< 1000 nM | Cc1cccc2c(=O)[nH]c(CSC3CCN(Cc4c[nH]c5ccncc45)CC3)nc12 [Example 151, 2-(((1-((1H-Pyrrolo[3,2-c]pyridin-3-yl)methyl)piperidin-4-yl)thio)methyl)-8-methylquinazolin-4(3H)-one bistrifluoroacetate]
< 1000 nM | Cc1cccc2c(=O)[nH]c(CSC3CCN(Cc4cnc5ccccn45)CC3)nc12 [Example 152, 2-(((1-(Imidazo[1,2-a]pyridin-3-ylmethyl)piperidin-4-yl)thio)methyl)-8-methylquinazolin-4(3H)-one trifluoroacetate]
< 1000 nM | Cc1cccc2c(=O)[nH]c(CSC3CCN(Cc4cncn4Cc4ccccc4)CC3)nc12 [Example 153, 2-(((1-((1-Benzyl-1H-imidazol-5-yl)methyl)piperidin-4-yl)thio)methyl)-8-methylquinazolin-4(3H)-one trifluoroacetate]
< 1000 nM | Cc1cccc2c(=O)[nH]c(CSC3CCN(Cc4cnn(Cc5ccccc5)c4)CC3)nc12 [Example 154, 2-(((1-((1-Benzyl-1H-pyrazol-4-yl)methyl)piperidin-4-yl)thio)methyl)-8-methylquinazolin-4(3H)-one trifluoroacetate]
< 1000 nM | Cc1cccc2c(=O)[nH]c(CSC3CCN(Cc4ccccc4OCC#N)CC3)nc12 [Example 155, 2-(2-((4-(((8-Methyl-4-oxo-3,4-dihydroquinazolin-2-yl)methyl)thio)piperidin-1-yl)methyl)phenoxy)acetonitrile trifluoroacetate]
1000 to 10000 nM | Cc1cccc2c(=O)[nH]c(CSC3CCN(Cc4ccc5c(c4)NC(=O)C5)CC3)nc12 [Example 156, 8-Methyl-2-(((1-((2-oxoindolin-6-yl)methyl)piperidin-4-yl)thio)methyl)quinazolin-4(3H)-one trifluoroacetate]
< 1000 nM | COc1ccc(CN2CCC(SCc3nc4c(C)cccc4c(=O)[nH]3)CC2)nc1 [Example 157, 2-(((1-((5-Methoxypyridin-2-yl)methyl)piperidin-4-yl)thio)methyl)-8-methylquinazolin-4(3H)-one bistrifluoroacetate]
